This is an account of results in ChEMBL document CHEMBL1134618, “Synthesis and biological evaluation of sialylmimetics as rotavirus inhibitors” (J Med Chem, 2001).

Molecules are shown by their SMILES. A value given as a limit tells only on which side of the number the result lay.

Assay [1] relates to Rotavirus. The experiment in a line: Inhibitory activity against bovine NCDV Rotavirus strain. In kind it is functional, organism-based.
For assay [2], the system named is Rotavirus. The experiment in a line: Inhibitory activity against human Wa Rotavirus strain. It counts as functional, organism-based.

With `CO[C@@H]1O[C@@H](CO)[C@@H](O[C@@H]2O[C@@H](CSC(C)C(=O)O)[C@H](O)[C@H](O)[C@@H]2O)[C@H](O)[C@@H]1O` (stereo partly specified), the concentration for half-maximal inhibition (IC50) (usually the point on the concentration scale where inhibition reaches its midpoint) is 12.5 mM in assay [1] and 6.25 mM in assay [2].

Consider `CCC(SC[C@@H]1O[C@@H](O[C@H]2[C@H](O)[C@H](O)[C@H](OC)O[C@H]2CO)[C@@H](O)[C@@H](O)[C@H]1O)C(=O)O` (stereo partly specified), for which the IC50 in assay [1] and in assay [2] was 6.25 mM each time.

With `CO[C@@H]1O[C@@H](CSC(C(=O)O)c2ccccc2)[C@H](O)[C@H](O)[C@@H]1O` (stereo partly specified), the concentration for half-maximal inhibition (IC50) in assay [1] and in assay [2] was over 25 mM each time.

For the compound `CO[C@@H]1O[C@@H](CSC(C(=O)O)c2ccccc2)[C@@H](O)[C@H](O)[C@@H]1O` (stereo partly specified), the 50% inhibitory concentration (IC50) in assay [1] and in assay [2] was over 25 mM each time.

With `CO[C@@H]1O[C@@H](CSC(CCO)C(=O)O)[C@H](O)[C@H](O)[C@@H]1O` (stereo partly specified), the IC50 in assay [1] and in assay [2] was over 25 mM in each case.

Regarding `COC1OC(CSC(C)C(=O)O)C(O)C(O)C1O` (stereo unspecified), the IC50 in assay [1] and in assay [2] was over 25 mM throughout.

Regarding `CO[C@@H]1O[C@@H](CSC(CCO)C(=O)O)[C@@H](O)[C@H](O)[C@@H]1O` (stereo partly specified), the IC50 in assay [1] and in assay [2] was over 25 mM in each case.

As to `COC1OC(CSC2(C(=O)O)CC(O)C(NC(C)=O)C([C@H](O)[C@H](O)CO)O2)C(O)C(O)C1O` (stereo partly specified), the IC50 in assay [2] was over 25 mM.

For the compound `CCC(SC[C@@H]1O[C@@H](OC)[C@@H](O)[C@@H](O)[C@H]1O)C(=O)O` (stereo partly specified), the results for the 50% inhibitory concentration (IC50) in assay [1] and in assay [2] were 25 mM and over 25 mM, respectively.

Take `CCC(SC[C@@H]1O[C@@H](OC)[C@@H](O)[C@@H](O)[C@@H]1O)C(=O)O` (stereo partly specified): the IC50 in assay [1] and in assay [2] was over 25 mM in each case.

With `CO[C@@H]1O[C@@H](CO)[C@@H](O[C@@H]2O[C@@H](CSC(C(=O)O)c3ccccc3)[C@H](O)[C@H](O)[C@@H]2O)[C@H](O)[C@@H]1O` (stereo partly specified), the half-maximal inhibitory concentration (IC50) in assay [1] came out at 12.5 mM; in assay [2] it was 25 mM.
